Reference: US10294217B2, “Fluoroindole derivatives as muscarinic M1 receptor positive allosteric modulators” (Suven Life Sciences Limited, priority 2015, dated 2019)
Counter-ions that a name gives are not always drawn. Like-named read-outs stand apart in the source and are kept apart here.

Experiments:
[1] = target: human Muscarinic M1 receptor (Homo sapiens (Human), UniProt P11229); experiment: Allosteric potency EC50 for muscarinic M1 receptor (CHO cells, pCRE-Luc reporter); format: cell-based; conditions: luciferase activity, 4 hours
Description: Determination of Allosteric Potency EC50 Values for Muscarinic M1 Receptor:
A stable CHO cell line expressing recombinant human Muscarinic M1 receptor and pCRE-Luc reporter system was used for cell-based assay. The assay offers a non-radioactive based approach to determine binding of a compound to GPCRs. In this specific assay, the level of intracellular cyclic AMP which is modulated by activation or inhibition of the receptor is measured. The recombinant cells harbor luciferase reporter gene under the control of cAMP response element.
The above cells were grown in 96 well clear bottom white plates in Hams F12 medium containing 10% fetal bovine serum (FBS). Prior to the addition of compounds or standard agonist, cells were serum starved overnight. Increasing concentrations of test compounds were added along with EC20 of acetylcholine in OptiMEM medium to the cells. The incubation was continued at 37° C. in CO2 incubator for 4 hours. Medium was removed and cells were washed with phosphate buffered saline. The cells were lysed and luciferase activity was measured in a Luminometer. Luminescence units were plotted against the compound concentrations using Graphpad software. EC50 values of the compounds were defined as the concentration required in stimulating the luciferase activity by 50% in presence of EC20 of acetylcholine and the results are provided in table 1.

[2] = Rodent brain penetration study; format: in vivo, Male Wistar rats; conditions: male, Wistar, rat, oral; 3 mg/kg, p.o.; brain-plasma ratio; read-out: Single dose Rat Brain Penetration (Cb/Cp)
Description: WO2015044072A1 patent application discloses indole derivatives as M1 PAM compounds. […] This makes these compounds less ideal for the treatment of CNS disorders.
Rodent Brain Penetration Study
Male Wistar rats (260±40 grams) were used as experimental animals. Three animals were housed in each cage. Animals were given water and food ad libitum throughout the experiment and maintained on a 12 hours light/dark cycle.
Brain penetration was determined in discrete manner in rats. One day prior to dosing day, male Wistar rats were acclimatized and randomly grouped according to their weight. At each time point (0.5, 1 and 2 hours) n=3 animals were used.
The test compounds were suitably preformulated and administered orally at (free base equivalent) 3 mg/kg. Blood samples were removed via cardiac puncture by using isoflurane anesthesia. The animals were sacrificed to collect brain tissue. Plasma was separated and brain samples were homogenized and stored frozen at ˜20° C. until analysis. The concentrations of the test compounds in plasma and brain were determined using LC-MS/MS method.
The test compounds were quantified in plasma and brain homogenate by qualified LC-MS/MS method using suitable extraction technique. The test compounds were quantified in the calibration range of 1-500 ng/mL in plasma and brain homogenate. Study samples were analyzed using calibration samples in the batch and quality control samples spread across the batch.

Male Wistar rats = experiment: Object recognition task model; format: in vivo; conditions: 3 mg/kg, p.o.
Description: Object Recognition Task Model
The cognition enhancing properties of compounds of this invention were estimated by using this model.
Male Wistar rats (8-10 weeks old) were used as experimental animals. Four animals were housed in each cage. Animals were kept on 20% food deprivation from a day prior to experimentation. Water was provided ad libitum throughout the experiment. Animals were maintained on a 12 hours light/dark cycle in temperature and humidity controlled room. The experiment was carried out in an open field made up of acrylic. Rats were habituated to individual arenas (open field) for 1 hour in the absence of any objects on day 1.
One group of 12 rats received vehicle and another set of animals received compound of the formula (I), before the familiar (T1) and choice (T2) trials. During the familiarization phase, (T1), the rats were placed individually in the arena for 3 minutes, in which two identical objects (a1 and a2) were positioned 10 cm from the wall. 24 hours after T1, trial for long-term memory test was performed. The same rats were placed in the same arena as they were placed in T1 trial. During the choice phase (T2) rats were allowed to explore the arena for 3 minutes in presence of a copy of familiar object (a3) and one novel object (b). During the T1 and T2 trial, explorations of each object (defined as sniffing, licking, chewing or having moving vibrissae whilst directing the nose towards the object at a distance of less than 1 cm) were recorded using stopwatch. • T1 is the total time spent exploring the familiar objects (a1+a2). • T2 is the total time spent exploring the familiar object and novel object (a3+b). • Discriminative index=Time spent with novel object/(time spent with novel and familiar object).
The object recognition test was performed as described by Behavioural Brain Research, 1988, 31, 47-59 and the results are provided in table 5.

[3] = Protein binding assay (HT dialysis), human matrices; format: in vitro ADME; conditions: Mean ± SEM
Description: (§1) Unbound fractions of new chemical entities in plasma, brain homogenate and liver microsomes were determined using high-throughput dialysis (HT dialysis). Briefly, dialysis membranes were soaked in deionized water for 20 minutes and then in deionized water with 30% ethanol for 15 minutes and finally in phosphate buffer until use. Membranes were rinsed in phosphate buffer before assembling. The membranes were layered between teflon bars of dialysis assembly. Stock solutions of test compounds were prepared at 10 mM in DMSO, diluted to 1 mM in acetonitrile and further diluted to 100 μM in mixture of water and acetonitrile (1:1 v/v). Human plasma (pool of 3) was prepared from human blood (3 donors) by centrifuging at 4000 rpm for 10 min at 4° C. Rat and dog blood were obtained on the day of the study and centrifuged to obtain plasma. Rat brains were isolated, cleaned and homogenized with 2 volumes of buffer (3 fold dilution). Liver microsomes were prepared at 0.5 mg/mL in phosphate buffer (100 mM, pH 7.4). The dialysate chambers were loaded with 150 μL of 100 mM phosphate buffer (pH 7.4) in triplicates. The matrix chambers were loaded with 150 μL of the plasma or brain homogenate or microsomal suspension spiked with test compounds at a final concentration of 1 μM. 50 μL of the sample was removed from both the chambers at 0 h. The plate was sealed and incubated at 37° C. for 6 h at 100 rpm. After 6 h, 50 μL of the sample was removed from both the chambers. Equal volumes of buffer or human plasma/microsomal suspension were added to the plasma/microsomal and buffer samples respectively to create identical sample matrices for analysis. The samples were precipitated with 150 μL of acetonitrile containing fluoxetine as an internal standard. All the samples were centrifuged at 10000 rpm for 10 minutes at 4° C.

[4] = Protein binding assay (HT dialysis), rat matrices; format: in vitro ADME; conditions: Mean ± SEM
Description: as §1

[5] = Protein binding assay (HT dialysis), dog matrices; format: in vitro ADME; conditions: Mean ± SEM
Description: as §1

[6] = Rodent pharmacokinetic study; format: in vivo, Male Wistar rats; conditions: male, Wistar
Description: Rodent Pharmacokinetic Study
Male Wistar rats (260±50 grams) were used as experimental animals. Animals were housed individually in polypropylene cage. Two days prior to study, male Wistar rats were anesthetized with isoflurane for surgical placement of jugular vein catheter. Rats were randomly divided for oral (3 mg/kg) and intravenous (i.v.) (1 mg/kg) dosing (n=3/group) and fasted overnight before oral dosing (p.o.). However, rats allocated to intravenous dosing food and water was provided ad libitum.
At pre-determined point, blood was collected through jugular vein and replenished with an equivalent volume of normal saline. Collected blood was transferred into a labeled eppendorf tube containing 10 μL of heparin as an anticoagulant. Typically blood samples were collected at following time points: 0.08, 0.25, 0.5, 1, 2, 4, 6, 8, and 24 hours post dose. Blood was centrifuged at 4000 rpm for 10 minutes. Plasma was separated and stored frozen at −80° C. until analysis. The concentrations of the test compounds were quantified in plasma by qualified LC-MS/MS method using suitable extraction technique. The test compounds were quantified in the calibration range around 1-1000 ng/mL in plasma. Study samples were analyzed using calibration samples in the batch and quality control samples spread across the batch.
Pharmacokinetic parameters Cmax, AUCt, T1/2, Clearance, and Bioavailability (% F) were calculated by non-compartmental model using standard non-compartmental model by using Phoenix WinNonlin 6.0.2 or 6.0.3 version Software package and the results are tabulated in table 3.

M1 = M1 (Homo sapiens (Human), UniProt P11229); conditions: cited from earlier work
[7] = cited from earlier work
[8] = cited from earlier work; remark: listed apart in the source
[9] = hM1 PAM EC50, in presence of EC20 of acetylcholine
[10] = in presence of EC20 of acetylcholine, read-out: hM1 PAM EC50
[11] = mean ± S.E.M, choice trial 24 hours after T1

## O=C(N[C@H]1CCNC[C@H]1F)c1cn(Cc2ccc(F)cc2)c2cccc(F)c12 (single isomer, unassigned; isomer-i) [Example 30, cis-N-(3-Fluoropiperidin-4-yl)-1-(4-fluorobenzyl)-4-fluoro-1H-indole-3-carboxamide hydrochloride (Isomer-I)]
[1]; [9]
  EC50: 1080 nM
[2]
  Kp: 1.05 ± 0.53

## COc1cccc(Cn2cc(C(=O)N[C@H]3CCNC[C@H]3F)c3c(F)cccc32)c1 (single isomer, unassigned; isomer-i) [Example 35, cis-N-(3-Fluoropiperidin-4-yl)-4-fluoro-1-(3-methoxybenzyl)-1H-indole-3-carboxamide hydrochloride (Isomer-I)]
[1]; [9]
  EC50: 1480 nM
[2]
  Kp: 0.72 ± 0.03

## COc1ccc(Cn2cc(C(=O)N[C@H]3CCNC[C@H]3F)c3c(F)cccc32)cc1 (single isomer, unassigned; isomer-i) [Example 38, cis-N-(3-Fluoropiperidin-4-yl)-1-(4-methoxybenzyl)-4-fluoro-1H-indole-3-carboxamide hydrochloride (Isomer-I)]
[1]; [9]
  EC50: 1450 nM
[2]
  Kp: 1.03 ± 0.17

## O=C(N[C@H]1CCCC[C@@H]1O)c1cn(Cc2ccnc(Cl)c2)c2c(F)ccc(F)c12 [Example 6, N-[(1S,2S)-2-Hydroxycyclohexyl]-1-(2-Chloropyridin-4-ylmethyl)-4,7-difluoro-1H-indole-3-carboxamide]
[1]; [10]
  EC50: 122 nM
Male Wistar rats
  Inference: Active
Male Wistar rats; [11]
  Exploration time Familiar object: 15.75 ± 1.71 s
  Exploration time Novel object: 23.67 ± 2.62 s
[3]; pH 7.4, Human liver microsomes 0.5 mg/mL, n = 3, read-out: Fu Microsomes
  fraction unbound at 6 h, 1 μM: 0.546 ± 0.018
[3]; pH 7.4, Human plasma, 37° C., n = 3, read-out: Fu Plasma
  fraction unbound at 6 h, 1 μM: 0.03 ± 0.003
[2]
  Kp: 2.09 ± 0.46
[4]; pH 7.4, Rat brain homogenate, 37° C., n = 3, read-out: Fu Brain
  fraction unbound at 6 h, 1 μM: 0.014 ± 0.001
[4]; pH 7.4, Rat liver microsomes 0.5 mg/mL, n = 3, read-out: Fu Microsomes
  fraction unbound at 6 h, 1 μM: 0.56 ± 0.048
[4]; pH 7.4, Rat plasma, 37° C., n = 3, read-out: Fu Plasma
  fraction unbound at 6 h, 1 μM: 0.05 ± 0.008
[5]; pH 7.4, Dog liver microsomes 0.5 mg/mL, n = 3, read-out: Fu Microsomes
  fraction unbound at 6 h, 1 μM: 0.713 ± 0.041
[5]; pH 7.4, Dog plasma, 37° C., n = 3, read-out: Fu Plasma
  fraction unbound at 6 h, 1 μM: 0.043 ± 0.002

## O=C(N[C@H]1CCCC[C@@H]1O)c1cn(Cc2ccncc2F)c2c(F)ccc(F)c12 [Example 10, N-[(1S,2S)-2-Hydroxycyclohexyl]-1-(5-fluoropyridin-4-ylmethyl)-4,7-difluoro-1H-indole-3-carboxamide]
[1]; [10]
  EC50: 940 nM
[2]
  Kp: 2.4 ± 0.3

## O=C(N[C@H]1CCCC[C@@H]1O)c1cn(Cc2cc(F)ncc2F)c2cccc(F)c12 [Example 11, N-[(1S,2S)-2-Hydroxycyclohexyl]-1-(2,5-difluoropyridin-4-ylmethyl)-4-fluoro-1H-indole-3-carboxamide]
[1]; [10]
  EC50: 1530 nM
[2]
  Kp: 1.59 ± 0.35

## O=C(N[C@H]1CCCC[C@@H]1O)c1cn(Cc2cc(F)ncc2F)c2c(F)ccc(F)c12 [Example 12, N-[(1S,2S)-2-Hydroxycyclohexyl]-1-(2,5-difluoropyridin-4-ylmethyl)-4,7-difluoro-1H-indole-3-carboxamide]
[1]; [10]
  EC50: 432 nM
[2]
  Kp: 1.64 ± 0.12
[6]; iv, 1 mg/kg, rat plasma
  AUC(0-t): 609 ± 62 ng·h/mL
  half-life: 1.6 ± 0.5 h
[6]; plasma, iv, 1 mg/kg, rat
  clearance: 26.7 ± 3.4 mL/min/kg
[6]; plasma, oral 3 mg/kg vs i.v. 1 mg/kg, rat, read-out: % F (Bioavailability)
  bioavailability: 62 ± 6%
[6]; oral, 3 mg/kg, rat plasma
  AUC(0-t): 1140 ± 114 ng·h/mL
  Cmax: 337 ± 141 ng/mL
  half-life: 3 ± 3 h

## N#CC1(c2ccccn2)CCN(Cc2cc(C(=O)O)c(=O)n3ccccc23)CC1 [PQCA, 1-{[4-cyano-4-(pyridine-2-yl)piperidin-1-yl]methyl}-4-oxo-4H-quinolizine-3-carboxylic acid]
M1
  selectivity for M1 over the other muscarinic receptor subtypes: highly selective
[7]; at doses equal to or less than a fivefold margin from the minimum effective dose required to improve cognition
  gastrointestinal side effects: no gastrointestinal side effects
[7]; several preclinical models of cognition
  efficacy in preclinical models of cognition: efficacious

## CCCCCCOc1nsnc1C1=CCCN(C)C1 [Xanomeline]
[8]; clinical Alzheimer's disease (AD) trial
  effects on cognition: significant effects on cognition
[8]; clinical trials
  gastrointestinal side effects: gastrointestinal side effects led to a high dropout rate
